24 compounds from US20260085073A1, “PYRAZOLYLCARBOXAMIDE COMPOUNDS AND THEIR USE IN THERAPY” (Hotspot Therapeutics, Inc., priority 2022, published 2026) can be followed below.

As usually defined, the IC50 is the concentration needed to halve the response being measured. Lower therefore signals greater potency in that assay.

For this test, the target named is T1, MALT1 (Homo sapiens, UniProt Q9UDY8).
T1 construct: Avi-tagged FL MALT-1 (Pharmaron, stored at −70° C.); Avi-tag
T1 sequence (Q9UDY8 1-824): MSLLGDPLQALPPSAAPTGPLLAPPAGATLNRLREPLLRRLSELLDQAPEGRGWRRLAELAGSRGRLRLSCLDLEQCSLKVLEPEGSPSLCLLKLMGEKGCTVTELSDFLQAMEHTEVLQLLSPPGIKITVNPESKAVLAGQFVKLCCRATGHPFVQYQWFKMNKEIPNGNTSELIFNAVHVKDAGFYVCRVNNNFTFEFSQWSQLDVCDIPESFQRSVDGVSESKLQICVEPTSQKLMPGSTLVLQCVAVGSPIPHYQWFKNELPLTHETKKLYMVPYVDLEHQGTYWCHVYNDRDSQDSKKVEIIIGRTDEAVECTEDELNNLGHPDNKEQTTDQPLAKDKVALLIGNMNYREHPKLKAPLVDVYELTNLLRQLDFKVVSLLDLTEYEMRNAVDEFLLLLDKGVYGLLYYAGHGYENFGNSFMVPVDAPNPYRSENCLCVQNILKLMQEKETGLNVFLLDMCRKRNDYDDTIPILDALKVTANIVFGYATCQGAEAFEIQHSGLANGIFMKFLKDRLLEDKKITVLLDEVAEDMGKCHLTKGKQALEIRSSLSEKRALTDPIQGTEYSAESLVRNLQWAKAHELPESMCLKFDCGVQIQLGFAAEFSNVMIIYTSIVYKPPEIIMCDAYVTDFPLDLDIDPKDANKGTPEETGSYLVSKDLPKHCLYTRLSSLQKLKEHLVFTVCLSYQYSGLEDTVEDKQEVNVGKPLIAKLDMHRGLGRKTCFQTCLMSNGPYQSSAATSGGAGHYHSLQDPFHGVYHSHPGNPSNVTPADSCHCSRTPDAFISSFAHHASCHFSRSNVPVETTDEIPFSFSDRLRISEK
Nature of the test: MALT1 inhibition assay (MALT-1 Fluorogenic Peptide Cleavage Assay, Ac-LRSR-AMC substrate). Type of test: biochemical. As to conditions: Avi-tagged FL MALT-1, 30 min pre-incubation, 90 min reaction at room temperature, fluorescence intensity. How it is done:
Example 71—MALT1 Inhibition Assay
Compounds were tested for ability to bind to MALT1.
Inhibition of MALT1 activity by the presence of small molecules was evaluated using MALT-1 Fluorogenic Peptide Cleavage Assay. The assay utilizes a quenched AMC-labelled peptide that contains the MALT-1 recognition sequence and cleavage site (LRSR). MALT-1 mediated cleavage of the peptide relieves the quenching and leads to an increase in fluorescence at excitation (342 nm) and emission (441 nm).
The following reagents were obtained commercially and used to prepare standard reagent formulations as further described below: N-2-hydroxyethylpiperazine-N-2-ethane sulfonic acid (HEPES) (1 M, pH 7.5, stored at 4° C.), sodium citrate (stored at RT), tris(2-carboxyethyl) phosphine hydrochloride (T-CEP) (500 mM, stored at −20° C.), ethylenediaminetetraacetic acid (EDTA) (500 mM, stored at RT), dimethylsulfoxide (DMSO, stored at RT), 3-[(3-cholamidopropyl)dimethylammonio]-1-propane sulphate (CHAPS) (stored at RT), dimethylsulfoxide (DMSO), DMSO (Fisher Scientific, stored at RT), Avi-tagged FL MALT-1 (Pharmaron, stored at −70° C.), Ac-LRSR-AMC Peptide (SM Biochemicals, stored at −20° C.), and ultrapure water (MILLI-QR).
The standard reagent formulations used in this assay were prepared and stored as follows. A 1.1 M solution of sodium citrate (161.3 g, 500 mL) was prepared and stored at room temperature. A 10% (w/v) CHAPS solution (2.0 g, 20 mL) was prepared and stored at 4° C. A 500 mM HEPES solution having pH of 6.89 was prepared from 200 mL of a 1 M HEPES solution having a pH of 7.5 using concentrated hydrochloric acid and brought to a final volume of 400 mL with MILLI-QR H2O. The substrate, 10 mM Ac-LRSR-AMC Peptide, was prepared (10 mg, 1.370 mL DMSO) and stored at −20° C.
Compounds were plated to provide a 2% DMSO final concentration using a ProxiPlate-384 Plus F Black 384-shallow well microplate. The assay-ready plates were equilibrated to room temperature. A reaction buffer (30 mL total volume) was prepared by combining HEPES (pH 6.89, 25 mM, 1.5 mL), sodium citrate (660 mM, 18.0 mL), T-CEP (1 mM, 0.06 mL), EDTA ([…], 0.06 mL), CHAPS (0.05%, 0.15 mL), DMSO (2%, 0.6 mL), and MILLI-QR H2O (10.23 mL; 9.63 mL when backfilled to 2% DMSO) followed by thorough mixing. DMSO was added only when compound plates had not been DMSO-backfilled to 2%.
MALT-1 was thawed and kept on ice. Peptide substrate was thawed on the bench under ambient conditions. A MALT-1 enzyme working stock was prepared from Avi-tagged FL MALT-1 (40 nM in a prepared reagent volume of 16.5 μL) and the reaction buffer (13.0 mL). MALT1 working stock (5 μL) was added to each well of the microplate. MALT-1 was pre-incubated with compounds for 30 minutes at room temperature.
Two substrate working stocks (Km and 10×Km) were prepared. The 1×Km substrate was prepared from Ac-LRSR-AMC Peptide (50 μM in a prepared reagent volume of 35.0 μL) and the reaction buffer (6.965 mL). The 10×Km substrate was prepared from Ac-LRSR-AMC Peptide (280 μM in a prepared reagent volume of 196.0 μL) and the reaction buffer (6.804 mL). The reaction was initiated by the addition of substrate working stock (5 μL, 50 μM) to Km plates and the addition of substrate working stock (5 μL 280 μM) to 10×Km plates. The plates were covered and incubated on the bench at room temperature for 90 minutes.
Fluorescence intensity was determined using a CLARIOstar microplate reader (BMG LABTECH) using the optimised AMC mode. Before taking readings, a 70% gain was applied on the neutral control well. Compound data were normalised to % Inhibition and used to plot sigmoidal concentration response curves to yield various parameters including IC50.
As for `Cn1nc(-c2cncc(F)c2)c(C(F)(F)F)c1C(=O)Nc1ccnc(C(F)(F)F)c1` [Compound I-81], the IC50 is 2500 to 10000 nM.
The figure for `Cn1nc(-c2cccc(S(C)(=O)=O)c2)c(C(F)(F)F)c1C(=O)Nc1ccnc(C(F)(F)F)c1` [Compound I-82] is 2500 to 10000 nM.
For `Cn1nc(-c2ccc(F)nc2F)c(C(F)(F)F)c1C(=O)Nc1ccnc(C(F)(F)F)c1` [Compound I-83], the IC50 is 2500 to 10000 nM.
In turn, `Cc1coc2c(-c3nn(C)c(C(=O)Nc4ccnc(C(F)(F)F)c4)c3C(F)(F)F)cccc12` [Compound I-84] showed a half-inhibitory concentration (IC50) of 500 to 2500 nM.
In turn, `Cn1nc(N2CCCc3ccccc32)c(C(F)(F)F)c1C(=O)Nc1ccnc(C(F)(F)F)c1` [Compound I-85, 3-(3,4-dihydroquinolin-1 (2H)-yl)-1-methyl-4-(trifluoromethyl)-N-(2-(trifluoromethyl)pyridin-4-yl)-1H-pyrazole-5-carboxamide] yielded an IC50 of 500 to 2500 nM.
Compound `Cn1nc(Nc2ccccc2)c(C(F)(F)F)c1C(=O)Nc1cnc(-n2nccn2)c(Cl)c1` [Compound I-86] showed a concentration for half-maximal inhibition (IC50) of under 500 nM.
`Cn1nc(-c2cccn3nccc23)c(C(F)(F)F)c1C(=O)Nc1ccnc(C(F)(F)F)c1` [Compound I-87] yielded a half-inhibitory concentration (IC50) of under 500 nM.
The value for `COc1ccccc1-c1nn(C)c(C(=O)Nc2ccnc(C(F)(F)F)c2)c1C(F)(F)F` [Compound I-88] was under 500 nM; that for `Cn1nc(-c2cccc(Cl)c2Cl)c(C(F)(F)F)c1C(=O)Nc1ccnc(C(F)(F)F)c1` [Compound I-89] was 500 to 2500 nM.
`Cn1nc(-c2csc3ncccc23)c(C(F)(F)F)c1C(=O)Nc1ccnc(C(F)(F)F)c1` [Compound I-90] came in with an IC50 of 500 to 2500 nM.
The value for `Cn1nc(-c2cccc3c2CCO3)c(C(F)(F)F)c1C(=O)Nc1ccnc(C(F)(F)F)c1` [Compound I-91] was 500 to 2500 nM; that for `Cn1nc(-c2csc3ccccc23)c(C(F)(F)F)c1C(=O)Nc1ccnc(C(F)(F)F)c1` [Compound I-92] was under 500 nM; that for `Cn1nc(-c2cc(OC3COC3)ccc2Cl)c(C(F)(F)F)c1C(=O)Nc1ccnc(C(F)(F)F)c1` [Compound I-93] was 500 to 2500 nM.
The value for `Cn1nc(-c2cccc3c2COC3)c(C(F)(F)F)c1C(=O)Nc1ccnc(C(F)(F)F)c1` [Compound I-95] was 500 to 2500 nM.
The figure for `Cn1nc(-c2cccc3scnc23)c(C(F)(F)F)c1C(=O)Nc1ccnc(C(F)(F)F)c1` [Compound I-96] is under 500 nM.
`Cn1nc(-c2cccc3[nH]ccc23)c(C(F)(F)F)c1C(=O)Nc1ccnc(C(F)(F)F)c1` [Compound I-97] registered an IC50 of 500 to 2500 nM.
For `CN1Cc2c(cccc2-c2nn(C)c(C(=O)Nc3ccnc(C(F)(F)F)c3)c2C(F)(F)F)C1=O` [Compound I-98], the concentration for half-maximal inhibition (IC50) was over 10000 nM.
Compound `Cn1nc(-c2cccc3ccsc23)c(C(F)(F)F)c1C(=O)Nc1ccnc(C(F)(F)F)c1` [Compound I-99] gave a concentration for half-maximal inhibition (IC50) of under 500 nM.
In turn, `CC(=O)Nc1cc(-c2nn(C)c(C(=O)Nc3ccnc(C(F)(F)F)c3)c2C(F)(F)F)ccn1` [Compound I-100] gave a 50% inhibitory concentration (IC50) of over 10000 nM.
The figure for `Cc1csc2c(-c3nn(C)c(C(=O)Nc4ccnc(C(F)(F)F)c4)c3C(F)(F)F)cccc12` [Compound I-101] is 500 to 2500 nM; for `Cn1nc(-c2cccn3nnnc23)c(C(F)(F)F)c1C(=O)Nc1ccnc(C(F)(F)F)c1` [Compound I-102] it is 2500 to 10000 nM.
In turn, `Cn1cc(-c2nn(C)c(C(=O)Nc3ccnc(C(F)(F)F)c3)c2C(F)(F)F)c(C2CC2)n1` [Compound I-103] yielded a half-inhibitory concentration (IC50) of 2500 to 10000 nM.
Compound `COc1cc(-c2nn(C)c(C(=O)Nc3ccnc(C(F)(F)F)c3)c2C(F)(F)F)c2scnc2c1` [Compound I-104] displayed a 50% inhibitory concentration (IC50) of over 10000 nM.
Regarding `Cn1nc(-c2nccc3ccccc23)c(C(F)(F)F)c1C(=O)Nc1ccnc(C(F)(F)F)c1` [Compound I-105, 3-(isoquinolin-1-yl)-1-methyl-4-(trifluoromethyl)-N-(2-(trifluoromethyl)pyridin-4-yl)-1H-pyrazole-5-carboxamide], the IC50 was 500 to 2500 nM.
